{
  "source": "ChEMBL document CHEMBL5726597",
  "about": "“TrkA kinase inhibitors, compositions and methods thereof” (2017)",
  "biological_target": "High affinity nerve growth factor receptor (Homo sapiens, UniProt P04629)",
  "sequence (P04629 whole entry, the tested form may be a part)": "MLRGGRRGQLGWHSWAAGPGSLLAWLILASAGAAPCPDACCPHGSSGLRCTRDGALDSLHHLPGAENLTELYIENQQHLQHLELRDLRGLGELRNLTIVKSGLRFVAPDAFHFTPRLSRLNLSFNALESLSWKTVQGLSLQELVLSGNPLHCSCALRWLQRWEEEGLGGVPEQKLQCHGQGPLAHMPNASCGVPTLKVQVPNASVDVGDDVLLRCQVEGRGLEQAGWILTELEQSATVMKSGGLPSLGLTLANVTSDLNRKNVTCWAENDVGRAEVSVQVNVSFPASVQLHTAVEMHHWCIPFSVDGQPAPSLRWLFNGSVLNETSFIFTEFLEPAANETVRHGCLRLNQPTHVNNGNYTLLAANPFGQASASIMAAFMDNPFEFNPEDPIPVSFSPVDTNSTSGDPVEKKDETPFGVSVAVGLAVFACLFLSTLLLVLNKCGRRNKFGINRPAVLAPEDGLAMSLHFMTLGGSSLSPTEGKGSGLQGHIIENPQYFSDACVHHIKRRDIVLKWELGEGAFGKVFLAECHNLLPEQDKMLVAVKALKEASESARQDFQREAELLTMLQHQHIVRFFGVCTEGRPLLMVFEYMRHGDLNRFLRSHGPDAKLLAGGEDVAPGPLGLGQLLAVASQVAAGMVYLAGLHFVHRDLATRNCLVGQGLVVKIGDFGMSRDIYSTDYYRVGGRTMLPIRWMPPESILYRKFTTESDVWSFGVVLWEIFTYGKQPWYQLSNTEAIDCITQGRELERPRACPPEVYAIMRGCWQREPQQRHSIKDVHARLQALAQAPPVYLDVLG",
  "experiment": "Functional Activity Assay: TrkA functional activity was measured using a DiscoverX PathHunter assay. In this assay, U2OS cells express the human TrkA receptor as a fusion with the weakly complementing fragment of B-galactosidase, which DiscoverX calls “Prolink (PK)”; additionally, Shcl is fused with a larger fragment, which is called “Enzyme Acceptor (EA)”. Activation of the TrkA receptor, upon NGF addition, results in the kinase domain being phosphorylated, resulting in subsequent recruitment of Shcl-EA protein. That recruitment results in an active B-galactosidase enzyme that is detected by addition of a chemiluminescent substrate. The human p75NTR protein was also expressed as a co-receptor for NGF.All reagents were purchased from DiscoverX, except for the receptor agonists (NGF, BDNF, NT3) which were purchased from Peprotech. Cells were expanded and frozen into cryovials, and stored in the vapor phase of liquid nitrogen, and thawed immediately before use. Thawed cells were added to a 384-well plate at 7500 cells/well, and allowed to incubate overnight. Compound at various concentrations was added the following morning and allowed to incubate on cells for 1 h. Then, NGF was added at a concentration sufficient to elicit ˜80% of a maximal response and allowed to incubate for 3 h at ambient temperature.",
  "data": [
    {"compound": "Cc1ncc(NC(=O)c2cc(-c3ccn(C)n3)c(C(F)(F)F)cc2F)c(-c2ccccc2)n1", "values": [
      {"measurement": "IC50", "value": 1, "unit": "nM"}
    ]}
  ]
}
